Source: the supplement of paper PMC10307832

compound: CC(C)(C)c1nc(-c2cccc(NS(=O)(=O)c3c(F)cccc3F)c2F)c(-c2ccnc(N)n2)s1 [Dabrafenib] + CC(=O)Nc1cccc(-n2c(=O)n(C3CC3)c(=O)c3c(Nc4ccc(I)cc4F)n(C)c(=O)c(C)c32)c1 [Trametinib] (partner 0.02 µM); experiment: relative viability (nuclei count vs DMSO), 5 days (fraction); higher = more cells survive; conditions: first compound 0.3 µM
Procedure, shortened: (§1)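 Lung cancer cell lines were pin-tool dosed in 1536-well plates on the day after seeding, with either a lone drug or a fixed anchor-drug dose plus five library-drug doses (not always all listed) in √10 steps. Nuclei were counted on 4× images after 5 days. Relative viability is the ratio of treated-well to vehicle-well nuclei counts, with each value a median of duplicate plates.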

Cell Line | relative viability
NCI-H1793 | 0.412
NCI-H2342 | 0.927
LK-2 | 0.934
NCI-H358 | 0.178
NCI-H1395 | 0.984
SK-MES-1 | 0.827

compound: CC(C)(C)c1nc(-c2cccc(NS(=O)(=O)c3c(F)cccc3F)c2F)c(-c2ccnc(N)n2)s1 [Dabrafenib] + CC(C)C[C@H](NC(=O)[C@H](Cc1ccccc1)NC(=O)c1cnccn1)B(O)O [Bortezomib] (partner 0.002 µM); experiment: as above; conditions: first compound 0.003 µM
Procedure, shortened: as §1

Cell Line | relative viability
CAL-12T | 0.623
NCI-H2085 | 1.03
IA-LM | 0.84
NCI-H2228 | 0.897
EMC-BAC-2 | 1.04
NCI-H1703 | 0.422
UMC-11 | 1.05
LCLC-103H | 1.06
NCI-H596 | 0.6
HCC-827 | 0.778
COR-L 105 | 0.721
NCI-H1299 | 0.962
NCI-H2126 | 1.1
HCC-44 | 0.884
NCI-H1651 | 0.857
NCI-H1755 | 0.972
PC-14 | 0.968
NCI-H1650 | 0.183
HCC-15 | 1.06
Calu-6 | 1.07
NCI-H1563 | 0.855
EBC-1 | 0.602

same assay, conditions: first compound 0.009487 µM

Cell Line | relative viability
ABC-1 | 0.292
CAL-12T | 1.18
NCI-H2085 | 1.13
IA-LM | 0.646
NCI-H2228 | 0.829
NCI-H441 | 0.453
EMC-BAC-2 | 1.11
NCI-H1703 | 0.496
UMC-11 | 0.637
NCI-H650 | 0.865
LCLC-103H | 1.14
NCI-H596 | 1
HCC-827 | 1.03
COR-L 105 | 0.843
NCI-H1299 | 0.97
NCI-H2126 | 1.1
NCI-H647 | 0.778

Cell Line | relative viability
LOU-NH91 | 0.457
HCC-78 | 0.655
HCC-44 | 0.854
NCI-H1651 | 0.887
NCI-H1755 | 0.924
HOP-62 | 0.809
PC-14 | 0.846
NCI-H1650 | 0.214
ChaGo-K-1 | 0.816
A-427 | 0.969
NCI-H1355 | 1.22
NCI-H1792 | 0.923
HCC-15 | 0.971
Calu-6 | 1.03
NCI-H1563 | 0.897
EBC-1 | 0.644

same assay, conditions: first compound 0.03 µM

Cell Line | relative viability
ABC-1 | 0.265
CAL-12T | 1.06
NCI-H2085 | 0.896
IA-LM | 0.492
NCI-H2228 | 0.859
NCI-H441 | 0.393
EMC-BAC-2 | 1.03
NCI-H1703 | 0.409
UMC-11 | 0.647
NCI-H650 | 0.645
LCLC-103H | 0.995
NCI-H596 | 0.818
HCC-827 | 1.06
COR-L 105 | 0.69
NCI-H1299 | 1
NCI-H2126 | 1.12
NCI-H647 | 0.789

Cell Line | relative viability
LOU-NH91 | 0.524
HCC-78 | 0.543
HCC-44 | 0.935
NCI-H1651 | 0.972
NCI-H1755 | 0.908
HOP-62 | 0.861
PC-14 | 0.817
NCI-H1650 | 0.24
ChaGo-K-1 | 1.01
A-427 | 0.939
NCI-H1355 | 1.12
NCI-H1792 | 0.897
HCC-15 | 0.997
Calu-6 | 0.844
NCI-H1563 | 0.687
EBC-1 | 0.477

same assay, conditions: first compound 0.09487 µM

Cell Line | relative viability
ABC-1 | 0.31
CAL-12T | 1.12
NCI-H2085 | 0.976
IA-LM | 0.471
NCI-H2228 | 0.912
NCI-H441 | 0.323
EMC-BAC-2 | 0.936
NCI-H1703 | 0.28
UMC-11 | 0.681
NCI-H650 | 0.494
LCLC-103H | 1.09
NCI-H596 | 0.895
COR-L 105 | 0.738
NCI-H1299 | 0.993
NCI-H2126 | 1.13
NCI-H647 | 1.19

Cell Line | relative viability
LOU-NH91 | 0.456
HCC-78 | 0.4
HCC-44 | 0.853
NCI-H1651 | 0.946
NCI-H1755 | 0.914
HOP-62 | 0.235
PC-14 | 0.919
NCI-H1650 | 0.177
ChaGo-K-1 | 0.983
A-427 | 0.821
NCI-H1792 | 0.885
HCC-15 | 0.891
Calu-6 | 0.712
NCI-H1563 | 0.898
EBC-1 | 0.411

same assay, conditions: first compound 0.3 µM

Cell Line | relative viability
ABC-1 | 0.288
CAL-12T | 1.08
NCI-H2085 | 1.04
IA-LM | 0.222
NCI-H2228 | 1.03
NCI-H441 | 0.35
EMC-BAC-2 | 1.06
NCI-H1703 | 0.43
UMC-11 | 0.735
NCI-H650 | 0.453
LCLC-103H | 1.01
NCI-H596 | 0.986
HCC-827 | 0.996
COR-L 105 | 0.895
NCI-H1299 | 1
NCI-H2126 | 1.15
NCI-H647 | 1.03

Cell Line | relative viability
LOU-NH91 | 0.497
HCC-78 | 0.513
HCC-44 | 0.964
NCI-H1651 | 0.862
NCI-H1755 | 0.903
HOP-62 | 0.706
PC-14 | 1.03
NCI-H1650 | 0.217
ChaGo-K-1 | 1.11
A-427 | 0.987
NCI-H1355 | 1.29
NCI-H1792 | 0.893
HCC-15 | 0.814
Calu-6 | 0.824
NCI-H1563 | 0.929
EBC-1 | 0.353
